Experimental data from US11725012B2, “Imidazo[1,5-a]pyrazine derivatives as PI3K δ inhibitors” (priority 2016, dated 2023).
Where two headings read alike, the source gives them in different places.

Legend:
Assay type in all cases: biochemical
PI3K (p110γ) = PI3K (p110γ) (Homo sapiens, UniProt P48736); experiment: PI3Kγ ADP-Glo kinase assay
[1] = biological target: recombinant PI3K (p110α/p85α) (Homo sapiens, UniProt P42336); experiment: PI3Kα ADP-Glo kinase assay
PI3K (p110β/p85α) = PI3K (p110β/p85α) (Homo sapiens, UniProt P42338); experiment: PI3Kβ ADP-Glo kinase assay
Sequence of PI3K (p110β/p85α) (P42338 whole entry): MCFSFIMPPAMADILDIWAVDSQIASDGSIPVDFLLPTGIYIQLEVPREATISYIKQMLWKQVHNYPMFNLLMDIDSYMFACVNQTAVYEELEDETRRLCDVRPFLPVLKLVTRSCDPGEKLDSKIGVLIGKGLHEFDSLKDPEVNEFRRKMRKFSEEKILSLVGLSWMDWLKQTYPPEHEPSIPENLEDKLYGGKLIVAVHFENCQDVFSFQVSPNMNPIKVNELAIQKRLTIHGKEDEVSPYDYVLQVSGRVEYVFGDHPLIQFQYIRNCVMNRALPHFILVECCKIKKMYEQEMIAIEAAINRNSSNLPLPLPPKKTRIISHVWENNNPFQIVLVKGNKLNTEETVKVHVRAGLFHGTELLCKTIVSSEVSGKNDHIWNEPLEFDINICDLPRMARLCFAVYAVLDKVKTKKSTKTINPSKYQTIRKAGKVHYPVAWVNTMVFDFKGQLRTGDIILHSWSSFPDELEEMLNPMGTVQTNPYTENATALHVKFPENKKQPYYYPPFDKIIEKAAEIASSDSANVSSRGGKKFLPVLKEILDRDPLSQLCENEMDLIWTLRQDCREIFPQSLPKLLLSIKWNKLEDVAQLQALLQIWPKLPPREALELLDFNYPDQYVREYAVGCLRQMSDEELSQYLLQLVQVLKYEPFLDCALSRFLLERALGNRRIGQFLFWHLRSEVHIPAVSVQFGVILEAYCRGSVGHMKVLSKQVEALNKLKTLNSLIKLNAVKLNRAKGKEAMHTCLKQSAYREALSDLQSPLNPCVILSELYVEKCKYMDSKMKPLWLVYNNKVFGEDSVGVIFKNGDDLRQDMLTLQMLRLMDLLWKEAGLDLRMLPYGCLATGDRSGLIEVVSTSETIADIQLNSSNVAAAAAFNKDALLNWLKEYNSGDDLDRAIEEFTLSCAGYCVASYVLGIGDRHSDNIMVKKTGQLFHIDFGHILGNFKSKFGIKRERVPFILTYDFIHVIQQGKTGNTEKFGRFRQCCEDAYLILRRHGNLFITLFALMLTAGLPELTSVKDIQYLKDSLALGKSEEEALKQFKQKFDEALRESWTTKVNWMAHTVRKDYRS
Sequence of PI3K (p110β/p85α) (P27986 whole entry partner): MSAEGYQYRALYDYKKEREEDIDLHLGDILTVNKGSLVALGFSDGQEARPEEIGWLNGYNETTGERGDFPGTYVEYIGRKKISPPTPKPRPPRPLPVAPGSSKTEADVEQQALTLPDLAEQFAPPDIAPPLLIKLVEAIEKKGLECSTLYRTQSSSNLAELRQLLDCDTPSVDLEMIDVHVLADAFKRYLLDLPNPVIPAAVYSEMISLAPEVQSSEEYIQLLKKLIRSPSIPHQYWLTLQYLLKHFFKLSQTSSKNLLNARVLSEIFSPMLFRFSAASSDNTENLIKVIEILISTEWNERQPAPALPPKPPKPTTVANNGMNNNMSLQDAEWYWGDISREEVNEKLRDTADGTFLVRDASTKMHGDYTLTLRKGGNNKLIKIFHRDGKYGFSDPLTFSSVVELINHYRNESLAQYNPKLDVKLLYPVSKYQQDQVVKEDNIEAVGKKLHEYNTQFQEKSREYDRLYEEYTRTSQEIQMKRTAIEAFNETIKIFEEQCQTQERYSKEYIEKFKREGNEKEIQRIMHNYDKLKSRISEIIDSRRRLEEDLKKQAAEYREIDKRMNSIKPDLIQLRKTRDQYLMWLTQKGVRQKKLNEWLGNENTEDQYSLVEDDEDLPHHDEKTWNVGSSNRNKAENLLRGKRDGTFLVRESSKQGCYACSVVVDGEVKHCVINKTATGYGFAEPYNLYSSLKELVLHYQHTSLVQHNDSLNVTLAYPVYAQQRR

[2] = biological target: recombinant PI3K (p110δ/p85α) (Homo sapiens, UniProt O00329); experiment: PI3Kδ ADP-Glo kinase assay
Sequence of recombinant PI3K (p110δ/p85α) (O00329 whole entry): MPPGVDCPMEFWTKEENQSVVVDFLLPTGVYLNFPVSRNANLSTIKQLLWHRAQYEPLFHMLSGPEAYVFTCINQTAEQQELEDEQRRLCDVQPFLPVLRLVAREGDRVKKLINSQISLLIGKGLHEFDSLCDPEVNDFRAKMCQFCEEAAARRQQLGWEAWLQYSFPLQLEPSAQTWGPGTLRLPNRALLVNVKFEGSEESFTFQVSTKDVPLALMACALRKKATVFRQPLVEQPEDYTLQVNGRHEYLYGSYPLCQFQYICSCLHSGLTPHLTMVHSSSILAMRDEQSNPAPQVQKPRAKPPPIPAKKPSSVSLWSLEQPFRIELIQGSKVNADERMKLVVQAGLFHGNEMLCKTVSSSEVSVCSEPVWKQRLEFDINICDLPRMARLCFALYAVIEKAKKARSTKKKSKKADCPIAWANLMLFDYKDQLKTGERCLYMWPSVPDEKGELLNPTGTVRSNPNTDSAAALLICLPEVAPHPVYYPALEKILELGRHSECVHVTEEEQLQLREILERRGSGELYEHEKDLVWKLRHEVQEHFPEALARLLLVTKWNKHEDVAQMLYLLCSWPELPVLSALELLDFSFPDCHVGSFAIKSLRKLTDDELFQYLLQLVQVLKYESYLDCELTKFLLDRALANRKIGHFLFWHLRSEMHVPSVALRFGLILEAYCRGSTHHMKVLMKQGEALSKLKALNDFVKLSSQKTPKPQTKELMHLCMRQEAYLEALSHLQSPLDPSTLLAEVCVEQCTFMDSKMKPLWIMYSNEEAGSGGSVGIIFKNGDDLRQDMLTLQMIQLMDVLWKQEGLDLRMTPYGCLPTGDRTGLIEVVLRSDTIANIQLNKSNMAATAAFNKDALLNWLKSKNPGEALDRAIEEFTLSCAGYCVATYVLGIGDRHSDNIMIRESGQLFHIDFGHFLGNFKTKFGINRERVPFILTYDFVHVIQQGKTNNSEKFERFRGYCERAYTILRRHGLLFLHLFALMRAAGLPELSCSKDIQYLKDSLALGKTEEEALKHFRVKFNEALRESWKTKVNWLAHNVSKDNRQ
Sequence of recombinant PI3K (p110δ/p85α) (P27986 whole entry partner): as the sequence (P27986 whole entry partner) above
Protocol: Compounds disclosed herein were tested for inhibition of PI3Kδ kinase activity using commercial ADP-Glo™ Kinase Assay (Promega Corporation) and following the manufacture's instruction. Briefly, recombinant PI3K (p110δ/p85α) enzyme, lipid kinase substrate and a serial dilution of compounds disclosed herein were incubated for 0.5 hr at room temperature. ATP was added to initiate the kinase reaction. After incubation for 1 hr at room temperature, ADP-Glo™ reagent was added to terminate the kinase reaction and deplete the remaining ATP. After incubation for 1 hr at room temperature, kinase detection reagent was added to simultaneously convert ADP to ATP and allow the newly synthesized ATP to be measured using a luciferase/luciferin reaction. After incubation for 0.5 hr at room temperature, the luminescence generated was measured on a PHERAstar FS plate reader (BMG LABTECH), The residual enzyme activity in presence of increasing concentrations of compounds was calculated based on the luminescence. The IC50 for each compound was derived from fitting the data to the four-parameter logistic equation by Graphpad Prism software.

[3] = read-out: PI3Kγ Enzyme activity IC50
[4] = read-out: PI3Kα Enzyme activity IC50
[5] = read-out: PI3Kβ Enzyme activity IC50
[6] = read-out: PI3Kδ Enzyme activity IC50

Sequence of PI3K (p110γ) (P48736 whole entry): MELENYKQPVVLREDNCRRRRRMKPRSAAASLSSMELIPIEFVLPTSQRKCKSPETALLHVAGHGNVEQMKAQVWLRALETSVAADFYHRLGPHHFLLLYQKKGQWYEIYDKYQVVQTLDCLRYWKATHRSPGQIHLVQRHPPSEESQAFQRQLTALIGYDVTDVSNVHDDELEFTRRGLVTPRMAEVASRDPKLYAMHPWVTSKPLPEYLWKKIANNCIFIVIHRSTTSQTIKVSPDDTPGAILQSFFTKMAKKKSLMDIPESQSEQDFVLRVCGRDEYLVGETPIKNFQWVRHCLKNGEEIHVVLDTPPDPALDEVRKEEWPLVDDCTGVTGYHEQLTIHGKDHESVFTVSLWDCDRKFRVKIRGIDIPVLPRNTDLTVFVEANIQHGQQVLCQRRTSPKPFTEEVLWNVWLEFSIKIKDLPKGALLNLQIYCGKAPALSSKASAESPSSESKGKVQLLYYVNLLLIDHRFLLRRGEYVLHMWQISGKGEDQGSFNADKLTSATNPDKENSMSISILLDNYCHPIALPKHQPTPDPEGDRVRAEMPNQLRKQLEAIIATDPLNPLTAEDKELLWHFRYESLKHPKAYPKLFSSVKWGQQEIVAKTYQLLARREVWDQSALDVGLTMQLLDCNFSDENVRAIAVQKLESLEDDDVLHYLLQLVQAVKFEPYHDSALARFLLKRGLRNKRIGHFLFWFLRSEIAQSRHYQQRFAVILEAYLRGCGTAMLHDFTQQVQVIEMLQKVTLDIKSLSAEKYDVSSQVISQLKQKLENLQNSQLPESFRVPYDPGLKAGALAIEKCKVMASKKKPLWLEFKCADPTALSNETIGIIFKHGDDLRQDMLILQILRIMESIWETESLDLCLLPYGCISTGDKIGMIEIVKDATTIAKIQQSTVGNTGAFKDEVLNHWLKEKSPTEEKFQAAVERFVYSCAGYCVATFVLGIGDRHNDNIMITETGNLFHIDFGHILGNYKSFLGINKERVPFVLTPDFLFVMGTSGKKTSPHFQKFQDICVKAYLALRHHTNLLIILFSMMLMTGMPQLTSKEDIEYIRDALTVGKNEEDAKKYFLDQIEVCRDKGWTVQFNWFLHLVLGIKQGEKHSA
Sequence of recombinant PI3K (p110α/p85α) (P42336 whole entry): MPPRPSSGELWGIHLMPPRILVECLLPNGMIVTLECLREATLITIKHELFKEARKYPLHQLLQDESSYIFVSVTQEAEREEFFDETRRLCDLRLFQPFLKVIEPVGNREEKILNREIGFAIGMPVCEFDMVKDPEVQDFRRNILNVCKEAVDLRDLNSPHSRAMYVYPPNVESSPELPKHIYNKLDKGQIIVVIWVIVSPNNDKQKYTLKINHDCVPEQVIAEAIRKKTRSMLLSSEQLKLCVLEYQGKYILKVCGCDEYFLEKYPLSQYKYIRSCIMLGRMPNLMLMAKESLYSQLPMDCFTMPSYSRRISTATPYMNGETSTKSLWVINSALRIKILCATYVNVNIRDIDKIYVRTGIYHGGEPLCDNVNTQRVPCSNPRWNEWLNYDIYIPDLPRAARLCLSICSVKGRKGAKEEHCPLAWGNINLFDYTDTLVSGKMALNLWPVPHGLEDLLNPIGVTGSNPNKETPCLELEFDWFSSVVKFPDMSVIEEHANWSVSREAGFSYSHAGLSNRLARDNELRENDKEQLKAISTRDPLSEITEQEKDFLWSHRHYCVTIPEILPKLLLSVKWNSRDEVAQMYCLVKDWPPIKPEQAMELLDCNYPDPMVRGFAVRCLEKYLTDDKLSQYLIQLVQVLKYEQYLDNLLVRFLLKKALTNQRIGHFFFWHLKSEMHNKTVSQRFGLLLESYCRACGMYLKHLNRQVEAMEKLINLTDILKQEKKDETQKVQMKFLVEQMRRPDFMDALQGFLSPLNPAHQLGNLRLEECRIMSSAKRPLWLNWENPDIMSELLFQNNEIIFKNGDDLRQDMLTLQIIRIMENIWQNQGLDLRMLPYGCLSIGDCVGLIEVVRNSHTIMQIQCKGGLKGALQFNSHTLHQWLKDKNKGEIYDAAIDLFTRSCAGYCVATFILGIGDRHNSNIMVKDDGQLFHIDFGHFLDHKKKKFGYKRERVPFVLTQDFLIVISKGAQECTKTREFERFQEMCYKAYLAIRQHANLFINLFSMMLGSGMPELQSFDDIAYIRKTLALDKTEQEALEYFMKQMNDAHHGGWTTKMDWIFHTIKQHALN
Sequence of recombinant PI3K (p110α/p85α) (P27986 whole entry partner): as the sequence (P27986 whole entry partner) above

| Structure (SMILES) | IC50 (PI3K (p110γ); [3]) [nM] | IC50 [1, 4] [nM] | IC50 (PI3K (p110β/p85α); [5]) [nM] | IC50 [2, 6] [nM] | IC50 (PI3K (p110γ); PI3Kγ Enzyme activity IC50) [nM] | IC50 ([1]; PI3Kα Enzyme activity IC50) [nM] | IC50 (PI3K (p110β/p85α); PI3Kβ Enzyme activity IC50) [nM] | IC50 ([2]; PI3Kδ Enzyme activity IC50) [nM] |
| --- | --- | --- | --- | --- | --- | --- | --- | --- |
| CCOc1c(C(C)c2nc(Cl)c3c(N)nccn23)cc(Cl)c(C)c1-c1ccc(Cl)nc1 (stereo not shown) [Compound 27, 1-chloro-3-(1-(5-chloro-3-(6-chloropyridin-3-yl)-2-ethoxy-4-methylphenyl)ethyl)imidazo[1,5-a]pyrazin-8-amine] | 1400 | 3300 | 1800 | 2.5 |  |  |  |  |
| CCOc1c([C@H](C)c2nc(Cl)c3c(N)nccn23)cc(Cl)c(C)c1-c1ccc(Cl)nc1 [Compound 27A] | 1000 | 2200 | 400 | 1.1 |  |  |  |  |
| CCOc1c(C(C)c2nc(Br)c3c(N)nccn23)cc(Cl)c(C)c1-c1ccc(OC)nc1 (stereo not drawn) [Compound 28, 1-bromo-3-(l-(5-chloro-2-ethoxy-3-(6-methoxypyridin-3-yl)-4-methylphenyl)ethyl)imidazo[1,5-a]pyrazin-8-amine] |  |  |  |  | 740 | 2300 | 930 | 3.2 |
| CCOc1c(C(C)c2nc(Cl)c3c(N)nccn23)cc(Cl)c(C)c1-c1ccc(OC)nc1 (stereo not shown) [Compound 29, 1-chloro-3-(1-(5-chloro-2-ethoxy-3-(6-methoxypyridin-3-yl)-4-methylphenyl)ethyl)imidazo[1,5-a]pyrazin-8-amine] | 1100 | 2900 | 820 | 2.1 |  |  |  |  |
| CCOc1c(C(C)c2nc(Br)c3c(N)nccn23)cc(Cl)c(C)c1-c1ccc(OCCOC)nc1 (stereo not shown) [Compound 30, 1-bromo-3-(1-(5-chloro-2-ethoxy-3-(6-(2-methoxyethoxy)pyridin-3-yl)-4-methylphenyl)ethyl)imidazo[1,5-a]pyrazin-8-amine] | 450 | 1800 | 530 | 2.3 |  |  |  |  |
| CCOc1c(C(C)c2nc(Cl)c3c(N)nccn23)cc(Cl)c(C)c1-c1ccc(OCCOC)nc1 (stereo not shown) [Compound 31, 1-chloro-3-(1-(5-chloro-2-ethoxy-3-(6-(2-methoxyethoxy)pyridin-3-yl)-4-methylphenyl)ethyl)imidazo[1,5-a]pyrazin-8-amine] | 430 | 2200 | 620 | 2.5 |  |  |  |  |
| CCOc1c(C(C)c2nc(C)c3c(N)nccn23)cc(Cl)c(C)c1-c1ccc(C(F)(F)F)nc1 (stereo not shown) [Compound 32, 3-(1-(5-chloro-2-ethoxy-4-methyl-3-(6-(trifluoromethyl)pyridin-3-yl)phenyl)ethyl)-1-methylimidazo[1,5-a]pyrazin-8-amine] | 2100 | 7400 | 3500 | 8.5 |  |  |  |  |
| CCOc1c(C(C)c2nc(Cl)c3c(N)nccn23)cc(F)c(Cl)c1-c1ccc(C(F)(F)F)nc1 (stereo not shown) [Compound 33, 1-chloro-3-(1-(4-chloro-2-ethoxy-5-fluoro-3-(6-(trifluoromethyl)pyridin-3-yl)phenyl)ethyl)imidazo[1,5-a]pyrazin-8-amine] | 750 | 1800 | 1800 | 5.7 |  |  |  |  |
| CC(C)Oc1c(C(C)c2nc(Cl)c3c(N)nccn23)cc(F)c(Cl)c1-c1ccc(C(F)(F)F)nc1 (stereo not shown) [Compound 35, 1-chloro-3-(1-(4-chloro-5-fluoro-2-isopropoxy-3-(6-(trifluoromethyl)pyridin-3-yl)phenyl)ethyl)imidazo[1,5-a]pyrazin-8-amine] | 5900 | 23000 | 79000 | 11 |  |  |  |  |
| CCOc1c(C(C)c2nc(Cl)c3c(N)nccn23)cc(Cl)c(Cl)c1-c1ccc(C(F)(F)F)nc1 (stereo not shown) [Compound 36, 1-chloro-3-(1-(4,5-dichloro-2-ethoxy-3-(6-(trifluoromethyl)pyridin-3-yl)phenyl)ethyl)imidazo[1,5-a]pyrazin-8-amine] | 730 | 1300 | 580 | 2.2 |  |  |  |  |
| CC(C)Oc1c(C(C)c2nc(Cl)c3c(N)nccn23)cc(Cl)c(Cl)c1-c1ccc(C(F)(F)F)nc1 (stereo not shown) [Compound 37, 1-chloro-3-(1-(4,5-dichloro-2-isopropoxy-3-(6-(trifluoromethyl)pyridin-3-yl)phenyl)ethyl)imidazo[1,5-a]pyrazin-amine] | 900 | 11000 | 1900 | 4.2 |  |  |  |  |
| Cc1c(Cl)cc(C(C)c2nc(Br)c3c(N)nccn23)c(OC(C)C)c1-c1ccc(C(F)(F)F)nc1 (stereo not shown) [Compound 38, 1-bromo-3-(1-(5-chloro-2-isopropoxy-4-methyl-3-(6-(trifluoromethyl)pyridin-3-yl)phenyl)ethyl)imidazo[1,5-a]pyrazin-8-amine] | 2800 | > 200000 | 30000 | 19 |  |  |  |  |
| Cc1c(Cl)cc([C@H](C)c2nc(Br)c3c(N)nccn23)c(OC(C)C)c1-c1ccc(C(F)(F)F)nc1 [Compound 38A] | 740 | > 200000 | 28000 | 5.4 |  |  |  |  |
| CCOc1c(C(C)c2nc(Br)c3c(N)nccn23)cc(Cl)c(C)c1-c1cncc(C(F)(F)F)c1 (stereo not shown) [Compound 39, 1-bromo-3-(1-(5-chloro-2-ethoxy-4-methyl-3-(5-(trifluoromethyl)pyridin-3-yl)phenyl)ethyl)imidazo[1,5-a]pyrazin-8-amine] | 1600 | 3200 | 2000 | 5.7 |  |  |  |  |
| CC(C)Oc1c(C(C)c2nc(Cl)c3c(N)nccn23)cc(Cl)c(F)c1-c1ccc(C(F)(F)F)nc1 (stereo not shown) [Compound 40, 1-chloro-3-(1-(5-chloro-4-fluoro-2-isopropoxy-3-(6-(trifluoromethyl)pyridin-3-yl)phenyl)ethyl)imidazo[1,5-a]pyrazin-8-amine] | > 50000 | > 50000 | > 50000 | 5.5 |  |  |  |  |
| CCOc1c(C(C)c2nc(Cl)c3c(N)nccn23)cc(Cl)c(F)c1-c1ccc(C(F)(F)F)nc1 (stereo not shown) [Compound 41, 1-chloro-3-(1-(5-chloro-2-ethoxy-4-fluoro-3-(6-(trifluoromethyl)pyridin-3-yl)phenyl)ethyl)imidazo[1,5-a]pyrazin-8-amine] | 2100 | 2700 | 3100 | 3.2 |  |  |  |  |
| CCOc1c([C@H](C)c2nc(Cl)c3c(N)nccn23)cc(Cl)c(F)c1-c1ccc(C(F)(F)F)nc1 [Compound 41A] | 730 | 2200 | 1200 | 2.1 |  |  |  |  |
| CCCOc1c(C(C)c2nc(Cl)c3c(N)nccn23)cc(Cl)c(F)c1-c1ccc(C(F)(F)F)nc1 (stereo not shown) [Compound 42, 1-chloro-3-(1-(5-chloro-4-fluoro-2-propoxy-3-(6-(trifluoromethyl)pyridin-3-yl)phenyl)ethyl)imidazo[1,5-a]pyrazin-8-amine] | 1600 | > 50000 | > 50000 | 7.4 |  |  |  |  |
| CCCOc1c([C@H](C)c2nc(Cl)c3c(N)nccn23)cc(Cl)c(F)c1-c1ccc(C(F)(F)F)nc1 [Compound 42A] | 810 | 26000 | 2200 | 4.1 |  |  |  |  |
| CCOc1c(C(C)c2nc(Cl)c3c(N)nccn23)cc(Cl)c(F)c1-c1ccc(C(F)(F)F)nc1OC (stereo not shown) [Compound 43, 1-chloro-3-(1-(5-chloro-2-ethoxy-4-fluoro-3-(2-methoxy-6-(trifluoromethyl)pyridin-3-yl)phenyl)ethyl)imidazo[1,5-al]pyrazin-8-amine] | > 50000 | > 50000 | > 50000 | 59 |  |  |  |  |
| CCOc1c([C@H](C)c2nc(Cl)c3c(N)nccn23)cc(Cl)c(F)c1-c1ccc(C(F)(F)F)nc1OC [Compound 43A] | > 50000 | > 50000 | > 50000 | 28 |  |  |  |  |
| CCOc1c(C(C)c2nc(Cl)c3c(N)nccn23)cc(Cl)c(C)c1-c1ccc(OC)cc1 (stereo not shown) [Compound 45, 1-chloro-3-(1-(5-chloro-2-ethoxy-4′-methoxy-6-methyl-[1,1′-biphenyl]-3-yl)ethyl)imidazo[1,5-a]pyrazin-8-amine] | 1200 | 1100 | 930 | 17 |  |  |  |  |
| CCOc1c(C(C)c2nc(Cl)c3c(N)nccn23)cc(Cl)c(C)c1C1CNC(=O)C1 (stereo not shown) [Compound 46, 4-(3-(1-(8-amino-1-chloroimidazo[1,5-a]pyrazin-3-yl)ethyl)-5-chloro-2-ethoxy-6-methylphenyl)pyrrolidin-2-one] | 920 | 5600 | 470 | 0.7 |  |  |  |  |
| CC(C)Oc1c(C(C)c2nc(Cl)c3c(N)nccn23)cc(Cl)c(F)c1C1CNC(=O)C1 (stereo not shown) [Compound 48, 4-(3-(1-(8-amino-1-chloroimidazo[1,5-a]pyrazin-3-yl)ethyl)-5-chloro-6-fluoro-2-isopropoxyphenyl)pyrrolidin-2-one] | 530 | 540 | 580 | 0.42 |  |  |  |  |
| CCOc1cc(C)c(Cl)cc1C(C)c1nc(Br)c2c(N)nccn12 (stereo not shown) [Compound 50, 1-bromo-3-(1-(5-chloro-2-ethoxy-4-methylphenyl)ethyl)imidazo[1,5-a]pyrazin-8-amine] | 2600 | 36000 | 670 | 17 |  |  |  |  |
